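Briefly, cells in 96-well plates were exposed to five compound concentrations for 48 h, and endpoints were estimated by linear interpolation. Here, GI50 denotes the concentration required for 50% inhibition of growth. The concentration for full growth arrest is given as TGI.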
Tests used:
Assay in all cases: NCI-60 cell line screen, 48 h
[1] = system: ACHN renal
[2] = system: DU-145 prostate
[3] = system: HCT-116 colon
[4] = system: LOX IMVI melanoma
[5] = system: OVCAR-3 ovarian
[6] = system: SF-268 CNS
[7] = system: SR leukemia
[8] = system: SW-620 colon
[9] = system: UACC-62 melanoma
[10] = system: UO-31 renal

Structure (SMILES)	GI50 [1] [µM]	TGI [1] [µM]	GI50 [2] [µM]	TGI [2] [µM]	GI50 [3] [µM]	TGI [3] [µM]	GI50 [4] [µM]	TGI [4] [µM]	GI50 [5] [µM]	TGI [5] [µM]	GI50 [6] [µM]	TGI [6] [µM]	GI50 [7] [µM]	TGI [7] [µM]	GI50 [8] [µM]	TGI [8] [µM]	GI50 [9] [µM]	TGI [9] [µM]	GI50 [10] [µM]	TGI [10] [µM]
ClC/C=C/CSc1ncnc2nc[nH]c12	> 100	> 100	> 100	> 100	> 100	> 100	> 100	> 100	> 100	> 100	> 100	> 100	> 100	> 100	> 100	> 100	> 100	> 100	> 100	> 100
COc1oc(C2C/C(=C/C(C)=C/C(C)=C/C(C)=C/c3ccc([N+](=O)[O-])cc3)CO2)c(C)c(=O)c1C (stereo not given)	–	6.58	–	> 47.3	–	18.2	–	23.4	–	54.9	–	42.6	–	3	–	> 100	–	> 54.8	–	27.5
Nc1nc(N)c(CCCCc2ccc([N+](=O)[O-])cc2)c(N)n1	–	> 100	–	> 100	–	> 100	–	> 100	–	> 100	–	> 100	–	> 100	–	> 100	–	> 100	–	> 100
O=C(Nc1c[nH]c(=O)[nH]c1=O)Oc1ccccc1	–	> 100	–	> 100	–	> 100	–	> 100	–	> 100	–	> 100	–	> 100	–	> 100	–	> 100	–	> 100
COc1ccccc1NC(=O)c1sc2ncn(CCOc3ccccc3)c(=O)c2c1C	6.01	> 50	> 50	> 50	1.99	> 50	1.52	> 50	2.91	> 50	3.2	> 50	0.856	6.87	2.33	> 50	2.04	> 50	12.5	> 50
CCCCCCCCCC(=O)Oc1ccc(/C(=C(/C)c2ccccc2)c2ccc(OCCN3CCCC3)cc2)cc1	8.16	15.5	8	14.8	8.01	15.7	8.02	14.8	8.18	16.1	8.16	17.2	9.08	19	8.57	15.6	9.18	16.8	6.72	14.2
COc1cc2c3c(c4ccc(O)cc4c2cc1OC)[C@@H](O)[C@@H]1CCCN1C3	–	0.0381	–	0.0036	–	0.00188	–	0.00339	–	0.00493	–	0.0018	–	0.215	–	1.25	–	0.0807	–	0.0211
O=C1c2ccc3c4c(ccc(c24)C(=O)N1CCCCO)C(=O)N(CCCCO)C3=O	0.92	5.18	2.2	6.32	1.22	6.16	1.35	3.58	0.408	2.31	2.09	11.5	0.745	21.5	1.86	10.1	0.726	2.28	1.87	7.65
O=C1c2ccccc2-c2cn(Cc3ccccc3)c3cccc(c23)C1c1cccnc1 (stereo not given)	12.1	> 50	4.27	40.5	1.99	> 50	2.76	> 50	1.8	4.95	18.5	> 50	1.78	> 50	1.88	> 50	2.73	> 50	5.2	> 50
Oc1ccccc1/C=N\NC(=S)Nc1ccc(F)cc1	0.674	> 100	1.97	> 100	0.403	> 100	0.708	> 79.7	0.41	> 69	0.95	> 73.6	0.415	10.5	1.17	> 100	0.95	4	0.472	4.97
Cc1cnc(C(=O)Nc2nc3ccc(S(=O)(=O)Nc4ccc(C(C)(C)C)cc4)cc3[nH]2)cn1	0.518	14.2	0.525	4.51	0.498	6.22	0.79	13.1	0.308	1.32	0.759	13.6	0.133	12.5	0.422	13.9	0.537	13	0.583	19.4
CNC(=O)c1sc(-n2cnc3cc(OC)c(OC)cc32)cc1OCc1ccccc1C(F)(F)F	> 25	> 25	> 25	> 25	> 25	> 25	> 25	> 25	> 25	> 25	> 25	> 25	9.49	> 25	> 25	> 25	> 22.6	> 25	12	> 25
N#Cc1ccc2c(-c3ccnc(NC4CC4)n3)c(-c3ccc(F)cc3)nn2c1	> 25	> 25	> 25	> 25	> 25	> 25	> 25	> 25	> 25	> 25	> 25	> 25	> 25	> 25	> 25	> 25	> 25	> 25	6.78	> 25
CCCCCn1sc(=O)n(Cc2ccc(CNC(=O)C(C)c3ccc(CC(C)C)cc3)cc2)c1=O (stereo not given)	0.498	1.73	1.17	2.4	0.194	0.72	0.474	1.52	0.488	1.63	1.52	2.96	0.452	5.77	0.37	1.46	1.3	2.62	0.561	1.99
